Source: patent US20160214926A1, “DIPHENYLOXYALKYLAMINE DERIVATIVES AND ARYLOXYALKYLAMINE DERIVATIVES, PHARMACEUTICAL COMPOSITION, USE OF SAID PHARMACEUTICAL COMPOSITION FOR TREATING, PREVENTING OR INHIBITING CHRONIC PULMONARY INFLAMMATORY DISEASES AND METHOD FOR TREATING OR PREVENTING SUCH DISEASES” (FUNDACAO OSWALDO CRUZ, priority 2013, published 2016)
Where two headings read alike, the source gives them in different places.

Assays:
rat tracheal rings = test: Inhibition of carbachol-induced contraction of rat tracheal rings (pretreatment); conditions: for IC50 / Emax: carbachol 10 μM, pretreated 10 minutes; for Emax: mean ± SEM, read-out: EMAX maximum effect of inhibition of carbachol-induced contraction
Text: In this study, Wistar rats of both sexes were used, weighing between 200 and 250 g, coming from the Laboratory Animal Breeding Center of Fundacdo Oswaldo Cruz. As previously described (Coelho et al., 2008), the animals were sacrificed by exposure to air atmosphere enriched with CO2, Then, the anterior cervical region was opened so that the trachea could be located and removed. It was then transferred to a Petri dish containing Krebs solution with the following composition (mM): NaCl (118), KCl (4.8), CaCl2 (2.5), MgSO4 (1.2), KH2PO4 (1.2), NaHCO3 (24), and glucose (11). The total segment was divided into fragments of about 3 to 4 rings, which were kept in another Petri dish containing Krebs solution. Each fragment was mounted vertically on a 10 ml cuvette with Krebs solution maintained at 37° C. and aerated with carbogen mixture (95% O2 and 5% CO2). The lower rod is fixed to the cuvette base and the top portion was attached to the isometric transducer for measuring the voltage variation of the fragment. The transducer was connected to a device which transforms the voltage variation in digital record. The fragments were subjected to a basal voltage of 1 g and were calibrated, so that the subsequent contractions could be expressed as a percentage of this 1 g voltage. The solutions were introduced inside the cuvettes with the aid of an automatic pipette. The end of the tip was always placed at the same height and position, without touching the muscle. The tracheal rings were initially contracted with 2.5 μM of carbachol. When the contractions reached the plateau, each segment was washed until the total relaxation of the smooth muscle. […] All results were expressed as percentage of the contraction produced by 2.5 μM of carbachol (Coelho et al., 2008).

[1] = test system: rat tracheas pre-contracted with carbachol; test: Relaxation of rat trachea pre-contracted with carbachol
Protocol: To assess the potential relaxing effect of the respiratory smooth muscle, rat tracheas were obtained and maintained in an isolated organ bath, as previously described (Coelho et al., 2008). The tracheal segments were then pre-contracted with carbachol at the concentration of 2.5 μM and subjected to increasing concentrations of the tested compounds. All results were expressed as percentage of the contraction produced by carbachol (Coelho et al., 2008).

tracheal rings = test: Anaphylactic (ovalbumin-induced) contraction of tracheal rings from sensitized rats; set-up: species or system Wistar rats
Protocol: In this study, Wistar rats of both sexes were used, weighing between 200 and 250 g, coming from the Laboratory Animal Breeding Center of Fundacdo Oswaldo Cruz. As described previously (da Costa et al., 2007), the animals were sensitized by injection into the dorsal subcutaneous tissue with mixture containing 50 μg of ovalbumin and 5 mg of aluminum hydroxide on days 0 and 7. On the 14th day after the first sensitization, the animals were sacrificed for the removal of the trachea. After a stabilization period of 30 minutes, the tracheal rings were contracted initially with carbachol (2.5 μM) for testing the feasibility and reproducibility of the responses of the preparation.
The tracheal rings were exposed to increasing concentrations of JME-173 (3-30 μM), or carrier (0.9% NaCl) for 30 minutes before the triggering of the contractile response triggered by ovalbumin (100 μg/ml). Salmeterol (30 μM) was used as reference treatment. The responses were expressed as mean±Standard Error of the Mean of at least 5 tracheal segments. All results were expressed as percentage of the contraction produced by 2.5 μM of carbachol.

[2] = test system: mast cells of the RBL-2H3 line; test: Antigen-induced degranulation of sensitized mast cells (beta-hexosaminidase release); assay type: cell-based; conditions: Rattus norvegicus; for Emax: RBL-2H3, DNP-BSA, read-out: EMAX blocking of anaphylactic mast cell degranulation
Protocol: For this study, mast cells of the RBL-2H3 line were used, as previously reported (Beaven et al., 1987). […] The cells were then dissociated from the plate using trypsin, centrifuged at 1000 rpm for 5 minutes and distributed in 48-well plates at a density of 125,000 cells per well. The cells were sensitized with monoclonal DNP-specific […] (1 μg/mL) diluted in the same medium used for the cultivation and maintained in the oven for 20 hours. After this period, the cells were washed with Tyrode-gelatin and subjected to treatment with increasing concentrations of […]-209 or mexiletine for 60 minutes. Then, incubation was performed with DNP-BSA (10 ng/ml) for a further period of 60 minutes. After this period, 10 μL of supernatant were collected from each well and added to a 96-well plate. The cells were lysed with 200 μL of 0.1% Triton X-100 and 10 μL of the lysate of each plate were added to the 96-well plate. Then, 40 μL of substrate for the β-hexosaminidase enzyme were added to the samples. After 40 minutes of reaction, reaction stopping solution (0.2 M glycine) was added, generating a colorimetric response, which was measured by spectrophotometer (λ=405 nm).

A/J mice [3] = test: Ovalbumin asthma model: airway hyperreactivity, leukocyte infiltration, cytokines (nebulization); assay type: in vivo
Protocol: Male A/J mice (18-20 g), coming from the Laboratory Animal Breeding Center of Oswaldo Cruz Foundation, were used in the experiments. The animals were previously sensitized with a mixture of ovalbumin (OVA) (50 μg) (Grade V; Sigma, St. Louis, Mo., USA) and aluminum hydroxide (5 mg) administered subcutaneously on day 0 with boost on day 14 (equal suspension administered intraperitoneally). Nasal instillations of OVA (25 μg/25 μl in sterile 0.9% NaCl) were administered on days 14, 21, 28 and 35, with the hyperresponsiveness analysis performed 24 hours after the last challenge. […] That is, the treatments took place after the installation of asthma framework, reflecting a therapeutic action of the respective compounds analyzed.
The effect of the treatments on bronchial hyperreactivity was investigated by measuring the resistance changes and pulmonary elastance, using invasive barometric plethysmography whole-body system (Buxco, USA), as previously described (Olsen et al., 2012).

A/J mice [4] = test: Ovalbumin asthma model: hyperreactivity, mucus production, peribronchial fibrosis (nebulization); assay type: in vivo
Text: Male A/J mice (18-20 g), coming from the Laboratory Animal Breeding Center of Oswaldo Cruz Foundation, were used in the experiments. The sensitization procedures, antigen challenge and treatment used in this study followed the experimental protocol shown in FIG. 6. Histological techniques were used for the quantification of mucus and peribronchial fibrosis, following previously reported and validated experimental protocols (Serra et al., 2012).

[5] = test system: sodium current in GH3 cells; test: Inhibition of sodium current in GH3 cells, patch clamp; assay type: cell-based, rat
[6] = trachea pre-contracted with carbachol 2.5 μM, mean±SEM

SMILES: Cc1cc(OCC(C)N)cc(C)c1Br.Cl (centres unmarked) [JME-173]
- IC50 (rat tracheal rings; Rattus norvegicus): 44.4 µM
- Emax (rat tracheal rings; Rattus norvegicus): 97.9 ± 4.7%
- inhibition at 100 µM (rat tracheal rings; Rattus norvegicus, compound 100 μM, pre-treatment 10 minutes, read-out: inhibition of the muscarinic contraction): ~98%
- IC50 (rat tracheal rings): 44.3 µM
- EC50 ([1]; Rattus norvegicus, trachea pre-contracted with carbachol 2.5 μM, mean±SEM): 3100 µM
- times more potent as relaxation inducers than mexiletine ([1]; pre-contracted trachea): 47 times
- maximum relaxation effect [1, 6]: 118%
- EC50 (tracheal rings; Rattus norvegicus, ovalbumin 100 μg/ml, 30 minutes pretreatment, read-out: EC50 inhibition of anaphylactic contraction response): 8.3 µM
- blocking of anaphylactic contraction (tracheal rings; compound 30 μM): completely inhibited
- Emax [2]: 97%
- IL-5 generation in lung tissue (A/J mice [3]; nebulization 2%): blocking
- IL-13 generation in lung tissue (A/J mice [3]; nebulization 2%): blocking
- eotaxin-2 generation in lung tissue (A/J mice [3]; nebulization 2%): blocking
- increased levels of anti-inflammatory cytokine IL-10 (A/J mice [3]; nebulization 2%): without change
- airway hyperreactivity (lung resistance and elastance after methacholine) (A/J mice [3]; nebulization 2% for 30 minutes, OVA sensitized and challenged): abolished
- airway hyperreactivity (A/J mice [4]; nebulization 0.5%, 1% or 2% for 30 minutes): able to block
- inhibition of mucus production in airways (A/J mice [4]; nebulization 0.5%, PAS staining, quantitative analysis): about 70%
- peribronchial fibrotic response (A/J mice [4]; nebulization, Gömöri trichrome, morphometry): clearly abolished

SMILES: Cc1cccc(C)c1OCC(C)N (centres unmarked) [Mexiletine, 2-(2-aminopropoxy)-1,3-dimethylbenzene, reference compound]
- IC50 ([5]; GH3 cells, patch clamp, read-out: IC50 for blocking the sodium current): ~278 µM
- IC50 (rat tracheal rings; Rattus norvegicus): 466 µM
- Emax (rat tracheal rings; Rattus norvegicus): 87.7 ± 4.9%
- blocking of the muscarinic contraction (rat tracheal rings; compound 1000 μM): about 88%
- maximum relaxation effect [1, 6]: 40%
- IC50 ([2]; RBL-2H3, 1 h, RBL-2H3, DNP-BSA 10 ng/ml, 60 minutes treatment, read-out: IC50 blocking of anaphylactic mast cell degranulation): 382 µM
- Emax [2]: 100%

SMILES: NC1=N[C@H](O)[C@H]2[C@H]3O[C@]4(O)O[C@@H]([C@@H](O)[C@@]2(N1)[C@@H]4O)[C@]3(O)CO [tetrodotoxin]
- IC50 ([5]; read-out: IC50 inhibition of sodium current): 0.304 µM
